The source of these data is patent US10722582B2, “Targeted antimicrobial photodynamic therapy” (Purdue Research Foundation, priority 2018, dated 2020).

For one data set, the system named is MRSA387. The data set can be described thus: Antibacterial activity assay with LED light. In kind it is cell-based, Staphylococcus aureus. As for the experimental part: (§1) Antibacterial activity assay general protocol: Used LED light to test conditions. Bacteria were grown in TS broth, followed by 3 mM bipyridine in TS broth until log phase. Bacteria were then diluted with PBS, to OD 0.1 (˜10^) and then to ˜10^7 cfu/mL. 100 uL of bacteria were placed in 96 well plates with the appropriate GaPpIX concentration. 2× serial dilutions were then done to obtain other GaPpIX concentrations. Each concentration was done in triplicate. Bacteria were left incubating and irradiating for different amount of times at different light powers or left in the dark. 10× Serial dilutions were done and bacteria were plated for colony counting using the drop-plate technique. Colonies were counted after 24 hours. As reported herein, a 3-log reduction equals measurable antimicrobial action; a 6-log reduction equals total eradication.
(§2) Stock solution preparation (AVM-3-36, 10 nm AgNP). Prepared a solution of (AVM-2-273) GaPpIX-apoHb 1 mg/mL in MP H2O, deaerated. Took 10 mL of 10 nm AgNPs, centrifuged at 900 G for 5 min (Beckman, 3100 RPM), took supernantant and added 200 uL of GaPpIXHb. After overnight, centrifuged 3000 RPM g for 5 minutes (Beckman). Took supernantant and centrifuged using a 100 K CentriCon tube at 4000 RPM for 5 minutes, 3×. Added 15 mM borate buffer to NPs. Based on calibration curve, the stock solution is 1.94 ug/mL AgNP, so stock: 79 μg/mL AgNP, 10.37 μg/mL GaPpIXHb, 0.446 μg/mL GaPpIX (refer to AVM-2-293A and AVM-3-3).
(§3) The following antibacterial activity measurements were assayed in the presence of AgNP.

The test system of the next data set is MRSA386. Description: Antibacterial activity assay with LED light. The class given is cell-based, Staphylococcus aureus. As to the method: as §1, §2, §3
The subject of the next data set is MRSA385. The data set can be described thus: Antibacterial activity assay with LED light. The class given is cell-based, Staphylococcus aureus. As for the experimental part: as §1, §2, §3
The subject of another data set is MRSA383. The data set can be described thus: Antibacterial activity assay with LED light. The class given is cell-based, Staphylococcus aureus. As to the method:
as §1, §2, §3

In data set [1] the test system is four clinical isolates of MRSA. The data set can be described thus: aPDI with CFL irradiation, summary over MRSA isolates. The class given is cell-based, Staphylococcus aureus. As to the method: In all cases, we observed potent aPDI with bactericidal activities at 1-5 μM (Table 1). The consistent response to Ga-PpIX treatment is encouraging, as variable efficacy between strains is a known problem in antimicrobial photodynamic therapy (Nakonieczna, J. et al., Photodiagn. Photodyn. Ther. 2012, 9, 359-361). […] We note that PpIX is already approved as a photosensitizer for topical treatment of several skin diseases, but its utility is limited by poor photostability.
A 20-W compact fluorescent lightbulb (CFL; Sunlite SL20/BLB) housed in an ellipsoidal reflector dome was used for aPDI, at an emission wavelength at 406 nm and a mean power density of 12.4 mW/cm^2 (after applying a 408-nm shortpass filter). Antimicrobial assays were performed on planktonic bacteria at 10^7 cfu/mL with variable exposure times to CFL irradiation, followed by plating on agar and incubation at 37° C. In a typical experiment, bacterial suspensions were transferred into 96-well plates then treated with 100-μL aliquots of Ga-PpIX or PpIX solution, with final concentrations ranging from 320 to 0.31 μg/mL, followed immediately with CFL irradiation for 5 to 15 minutes. […] Bacterial counts were determined by the drop-plate method using TS-agar plates, and reported in colony-forming units per milliliter (cfu/mL).

For data set [2], the system named is S. aureus and clinical isolates of MRSA. The data set can be described thus: aPDI with CFL irradiation, summary over strains. The class given is cell-based, Staphylococcus aureus. Conditions: 15 minutes of irradiation, compact fluorescence lightbulb (λmax 406 nm, 12.4 mW/cm^2). As for the experimental part:
A 20-W compact fluorescent lightbulb (CFL; Sunlite SL20/BLB) housed in an ellipsoidal reflector dome was used for aPDI, at an emission wavelength at 406 nm and a mean power density of 12.4 mW/cm^2 (after applying a 408-nm shortpass filter). Antimicrobial assays were performed on planktonic bacteria at 10^7 cfu/mL with variable exposure times to CFL irradiation, followed by plating on agar and incubation at 37° C. In a typical experiment, bacterial suspensions were transferred into 96-well plates then treated with 100-μL aliquots of Ga-PpIX or PpIX solution, with final concentrations ranging from 320 to 0.31 μg/mL, followed immediately with CFL irradiation for 5 to 15 minutes. The irradiated bacteria were plated onto agar in serial tenfold dilutions (10^7-10^1 cfu/mL); controls included one set of wells without photosensitizer, and one set of wells with photosensitizer but without 15 min irradiation, prior to plating (dark toxicity). Bacterial counts were determined by the drop-plate method using TS-agar plates, and reported in colony-forming units per milliliter (cfu/mL).

For data set [3] the following is noted: Rish et al. 2007; cited from earlier work.

On to Ga(III)-protoporphyrin [Ga-PpIX (1)], for which the “concentration for 3-log reduction” value came to 59 nM in the data set on MRSA387, 118 nM in the data set on MRSA386, 89 nM in the data set with MRSA385 and 59 nM with MRSA383. Moreover, the “concentration for 6-log reduction” value is 1900 nM in the data set with MRSA387, 235 nM with MRSA386, 470 nM in the data set with MRSA385 and 118 nM in the data set with MRSA383. In addition, the “bactericidal activities (aPDI)” value in data set [1] lay in the range of 1 to 5 µM. Moreover, in data set [2], the “GaPpIX concentration for 3-log reduction by aPDI” value was 0.5-4.5 μM. For the same substance, the “molar extinction coefficient, previous reports” value in data set [3] was 250000 M⁻¹ cm⁻¹.
